From publication PMC6219668 (Oncotarget, 2018)

System: panel of nearly 500 cancer cell lines
Experiment: Cancer Cell Line Encyclopedia profiling, 3-day CellTiter-Glo
Type: cell-based
Conditions: Homo sapiens

With `CN(C)C(=O)c1cc2cnc(Nc3ccc(N4CCNCC4)cn3)nc2n1C1CCCC1` [Ribociclib, 7-cyclopentyl-2-(5-piperazin-1-yl-pyridin-2-ylamino)-7H-pyrrolo[2,3-d]pyrimidine-6-carboxylic acid dimethylamide] the IC50 (NCI-H1666) was > 8 µM, the EC50 (NCI-H1693) was 0.351 µM and the IC50 (NCI-H1693) was > 8 µM. For the same compound, the EC50 (NCI-H1694) was > 8 µM, the IC50 (NCI-H1694) was > 8 µM and the EC50 (NCI-H1703) was 1.11 µM. The IC50 (NCI-H1703) was > 8 µM, the EC50 (NCI-H1792) was > 8 µM and the IC50 (NCI-H1792) was > 8 µM. The EC50 (NCI-H1793) was 0.00418 µM, the IC50 (NCI-H1793) was > 8 µM and the EC50 (NCI-H1944) was 2.5 µM. For the same compound, the IC50 (NCI-H1944) was > 8 µM, the EC50 (NCI-H1975) was 1.05 µM and the IC50 (NCI-H1975) was > 8 µM. For the same compound, the EC50 (NCI-H2009) was > 8 µM, the IC50 (NCI-H2009) was > 8 µM and the EC50 (NCI-H2030) was 1.29 µM. For the same compound, the IC50 (NCI-H2030) was > 8 µM, the EC50 (NCI-H2052) was 0.0207 µM and the IC50 (NCI-H2052) was > 8 µM. The EC50 (NCI-H2087) was 0.338 µM, the IC50 (NCI-H2087) was > 8 µM and the EC50 (NCI-H2122) was > 8 µM. The IC50 (NCI-H2122) was 3.73 µM, the EC50 (NCI-H2170) was > 8 µM and the IC50 (NCI-H2170) was > 8 µM. The EC50 (NCI-H2228) was > 8 µM, the IC50 (NCI-H2228) was > 8 µM and the EC50 (NCI-H2286) was 0.506 µM. For the same compound, the IC50 (NCI-H2286) was > 8 µM, the EC50 (NCI-H2444) was > 8 µM and the IC50 (NCI-H2444) was > 8 µM. The EC50 (NCI-H2452) was 0.3 µM, the IC50 (NCI-H2452) was > 8 µM and the EC50 (NCI-H3255) was > 8 µM. The IC50 (NCI-H3255) was > 8 µM, the EC50 (NCI-N87) was > 8 µM and the IC50 (NCI-N87) was > 8 µM. For the same compound, the EC50 (NUGC-3) was > 8 µM, the IC50 (NUGC-3) was > 8 µM and the EC50 (NUGC-4) was 0.212 µM. For the same compound, the IC50 (NUGC-4) was 1.07 µM, the EC50 (OC-314) was > 8 µM and the IC50 (OC-314) was > 8 µM. It also gave an EC50 (OCI-AML2) of 0.838 µM, an IC50 (OCI-AML2) of 1.16 µM and an EC50 (OCI-AML-5) of 0.187 µM. The IC50 (OCI-AML-5) was > 8 µM, the EC50 (OCI-Ly10) was > 8 µM and the IC50 (OCI-Ly10) was > 8 µM. The EC50 (OE33) was > 8 µM, the IC50 (OE33) was > 8 µM and the EC50 (OV-90) was 0.0694 µM. The IC50 (OV-90) was > 8 µM, the EC50 (OVCAR-3) was > 8 µM and the IC50 (OVCAR-3) was > 8 µM. For the same compound, the EC50 (OVCAR-4) was > 8 µM, the IC50 (OVCAR-4) was > 8 µM and the EC50 (OVCAR-8) was > 8 µM. The IC50 (OVCAR-8) was > 8 µM, the EC50 (OVSAHO) was > 8 µM and the IC50 (OVSAHO) was > 8 µM. The EC50 (P3HR-1) was > 8 µM, the IC50 (P3HR-1) was > 8 µM and the EC50 (P12-Ichikawa) was 0.797 µM. The IC50 (P12-Ichikawa) was 3.74 µM, the EC50 (P31-FUJ) was > 8 µM and the IC50 (P31-FUJ) was > 8 µM. The EC50 (PANC-03-27) was > 8 µM, the IC50 (PANC-03-27) was > 8 µM and the EC50 (PC-14) was 4.03 µM. The IC50 (PC-14) was > 8 µM, the EC50 (PLC-PRF-5) was > 8 µM and the IC50 (PLC-PRF-5) was > 8 µM. The EC50 (PSN1) was 2.03 µM, the IC50 (PSN1) was > 8 µM and the EC50 (Panc 02.03) was > 8 µM. For the same compound, the IC50 (Panc 02.03) was > 8 µM, the EC50 (Panc 04.03) was > 8 µM and the IC50 (Panc 04.03) was > 8 µM. For the same compound, the EC50 (Panc1005) was > 8 µM, the IC50 (Panc1005) was > 8 µM and the EC50 (Pfeiffer) was > 8 µM. The IC50 (Pfeiffer) was > 8 µM, the EC50 (RL95-2) was 3.35 µM and the IC50 (RL95-2) was > 8 µM. For the same compound, the EC50 (RPMI 8402) was 0.951 µM, the IC50 (RPMI 8402) was 1.54 µM and the EC50 (RPMI-7951) was 0.807 µM. The IC50 (RPMI-7951) was > 8 µM, the EC50 (RT-112) was 0.545 µM and the IC50 (RT-112) was > 8 µM. The EC50 (RVH-421) was > 8 µM, the IC50 (RVH-421) was > 8 µM and the EC50 (Raji) was > 8 µM. For the same compound, the IC50 (Raji) was > 8 µM, the EC50 (SAOS-2) was > 8 µM and the IC50 (SAOS-2) was > 8 µM. For the same compound, the EC50 (SBC-5) was 2.3 µM, the IC50 (SBC-5) was > 8 µM and the EC50 (SCC-9) was 0.00254 µM. The IC50 (SCC-9) was > 8 µM, the EC50 (SCaBER) was 1.95 µM and the IC50 (SCaBER) was > 8 µM. For the same compound, the EC50 (SF-126) was > 8 µM, the IC50 (SF-126) was > 8 µM and the EC50 (SF-295) was 0.323 µM. For the same compound, the IC50 (SF-295) was > 8 µM, the EC50 (SHP77) was > 8 µM and the IC50 (SHP77) was > 8 µM. For the same compound, the EC50 (SIG-M5) was 0.0796 µM, the IC50 (SIG-M5) was 0.22 µM and the EC50 (SJRH30) was > 8 µM. The IC50 (SJRH30) was > 8 µM, the EC50 (SJSA-1) was 1.18 µM and the IC50 (SJSA-1) was > 8 µM. The EC50 (SK-BR-3) was > 8 µM, the IC50 (SK-BR-3) was > 8 µM and the EC50 (SK-CO-1) was 2.76 µM. For the same compound, the IC50 (SK-CO-1) was > 8 µM, the EC50 (SK-ES1) was 0.0436 µM and the IC50 (SK-ES1) was > 8 µM. The EC50 (SK-HEP1) was 0.373 µM, the IC50 (SK-HEP1) was > 8 µM and the EC50 (SK-LMS-1) was 1.26 µM. The IC50 (SK-LMS-1) was > 8 µM, the EC50 (SK-LU-1) was 0.682 µM and the IC50 (SK-LU-1) was > 8 µM. The EC50 (SK-MEL-2) was > 8 µM, the IC50 (SK-MEL-2) was > 8 µM and the IC50 (SK-MEL-5) was > 8 µM. For the same compound, the EC50 (SK-MEL-24) was > 8 µM, the IC50 (SK-MEL-24) was > 8 µM and the EC50 (SK-MEL-30) was > 8 µM. The IC50 (SK-MEL-30) was > 8 µM, the EC50 (SK-MES-1) was 5.26 µM and the IC50 (SK-MES-1) was 5.27 µM. The EC50 (SK-MM-2) was > 8 µM, the IC50 (SK-MM-2) was > 8 µM and the EC50 (SK-N-AS) was 0.457 µM. The IC50 (SK-N-AS) was > 8 µM, the EC50 (SK-N-DZ) was 0.88 µM and the IC50 (SK-N-DZ) was 3.44 µM. For the same compound, the EC50 (SK-N-SH) was > 8 µM, the IC50 (SK-N-SH) was 7.74 µM and the EC50 (SK-OV-3) was > 8 µM. For the same compound, the IC50 (SK-OV-3) was > 8 µM, the EC50 (SKNBE2) was 0.328 µM and the IC50 (SKNBE2) was 1.8 µM. For the same compound, the EC50 (SNU1) was 2.4 µM, the IC50 (SNU1) was > 8 µM and the EC50 (SNU-16) was > 8 µM. The IC50 (SNU-16) was > 8 µM, the EC50 (SNU-182) was > 8 µM and the IC50 (SNU-182) was > 8 µM. The EC50 (SNU-387) was > 8 µM, the IC50 (SNU-387) was > 8 µM and the EC50 (SNU-398) was 0.569 µM. For the same compound, the IC50 (SNU-398) was > 8 µM, the EC50 (SNU-423) was > 8 µM and the IC50 (SNU-423) was > 8 µM. For the same compound, the EC50 (SNU-449) was > 8 µM, the IC50 (SNU-449) was > 8 µM and the EC50 (SNU-475) was > 8 µM. The IC50 (SNU-475) was > 8 µM, the EC50 (SNU-C2B) was > 8 µM and the IC50 (SNU-C2B) was > 8 µM. The EC50 (SU-DHL10) was 5.75 µM, the IC50 (SU-DHL10) was 5.75 µM and the EC50 (SU-DHL-4) was 0.329 µM. For the same compound, the EC50 (SU-DHL-6) was 0.742 µM, the IC50 (SU-DHL-6) was > 8 µM and the EC50 (SU-DHL-8) was 1.6 µM. For the same compound, the IC50 (SU-DHL-8) was 3.73 µM, the EC50 (SU.86.86) was > 8 µM and the IC50 (SU.86.86) was > 8 µM. For the same compound, the EC50 (SUP-T1) was > 8 µM, the IC50 (SUP-T1) was > 8 µM and the EC50 (SW48) was 0.0194 µM. For the same compound, the IC50 (SW48) was > 8 µM, the EC50 (SW480) was 6.21 µM and the IC50 (SW480) was > 8 µM. The EC50 (SW780) was 0.159 µM, the IC50 (SW780) was > 8 µM and the EC50 (SW900) was 0.385 µM. The IC50 (SW900) was > 8 µM, the EC50 (SW1088) was > 8 µM and the IC50 (SW1088) was > 8 µM. The EC50 (SW1353) was > 8 µM, the IC50 (SW1353) was > 8 µM and the EC50 (SW1417) was > 8 µM. The IC50 (SW1417) was > 8 µM, the EC50 (SW1573) was 0.324 µM and the IC50 (SW1573) was > 8 µM. The EC50 (SW1990) was 0.593 µM, the IC50 (SW1990) was > 8 µM and the EC50 (SW-403) was > 8 µM. For the same compound, the IC50 (SW-403) was 4.34 µM, the EC50 (SW-620) was 0.45 µM and the IC50 (SW-620) was > 8 µM. For the same compound, the EC50 (T47D) was > 8 µM, the IC50 (T47D) was > 8 µM and the EC50 (T98G) was > 8 µM. The IC50 (T98G) was > 8 µM.
